Results taken from patent publication US5849695A, “Parathyroid hormone analogues useful for treatment of osteoporosis and disorders of calcium meatabolism in mammals” (The Regents of the University of California, priority 1993, dated 1998).

What was measured:
PTH receptor [1] = target: T1, PTH receptor (Rattus norvegicus, UniProt P25961); format: binding
T1 construct: endogenous in cells; host or cells: UMR 106-H5 rat osteosarcoma cells
T1 sequence (P25961 27-591): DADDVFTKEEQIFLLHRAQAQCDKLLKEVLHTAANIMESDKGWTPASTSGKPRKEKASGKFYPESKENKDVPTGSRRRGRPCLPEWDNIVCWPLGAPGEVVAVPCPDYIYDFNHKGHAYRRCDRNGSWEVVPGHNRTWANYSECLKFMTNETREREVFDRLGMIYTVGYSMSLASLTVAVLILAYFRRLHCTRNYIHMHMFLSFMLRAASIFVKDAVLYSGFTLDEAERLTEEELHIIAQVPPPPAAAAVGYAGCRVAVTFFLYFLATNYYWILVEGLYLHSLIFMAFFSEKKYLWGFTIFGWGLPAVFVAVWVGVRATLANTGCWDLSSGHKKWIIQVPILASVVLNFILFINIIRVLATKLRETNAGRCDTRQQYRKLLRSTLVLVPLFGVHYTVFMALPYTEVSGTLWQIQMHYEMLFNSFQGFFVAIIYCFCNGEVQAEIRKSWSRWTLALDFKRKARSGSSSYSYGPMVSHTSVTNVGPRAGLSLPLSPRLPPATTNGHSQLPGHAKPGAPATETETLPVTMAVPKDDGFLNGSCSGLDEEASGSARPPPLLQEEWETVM
Procedure: (§1) Receptor binding assays were carried out in canine renal plasma membranes and in UMR 106-H5 rat osteosarcoma cells as previously described in detail (Ref. 14,32), using ^125 I-labeled PTH(1-34)amide as the radioligand. Binding potency (IC50) was quantified as the concentration of unlabeled peptide required for half-maximal displacement of the radioligand. […] Adenylate cyclase activity was assessed in canine renal membranes by the conversion of [α-32p ] ATP to [^32 P] cyclic AMP, essentially as described, except for the addition of 100 micromolar GTP (Ref. 33,34). Adenylate cyclase activity in UMR 106-H5 cells was assessed essentially as described (Ref. 35). In brief, cells were incubated with [3H]adenine 1 micro Ci/ml of serum-free MEM for two hours at 37° C. to label the endogenous ATP pool. Cells were then exposed to 0.4 mM IBMX for 10 min, followed by the appropriate peptide for an additional 10 min at ambient temperature. The cells are then scraped in 20% TCA, and [3H]cyclic AMP is isolated by the column procedure of Salomon et al. (Ref. 36). Potency in the adenylate cyclase assays (Ka) is the concentration of peptide producing half-maximal enzyme activation.

PTH receptor [2] = target: T2, PTH receptor (Canis lupus familiaris, UniProt Q9TU31); format: binding, canine
T2 construct: canine renal plasma membranes; from tissue; host or cells: canine kidney (renal plasma membranes)
T2 sequence (Q9TU31 29-595): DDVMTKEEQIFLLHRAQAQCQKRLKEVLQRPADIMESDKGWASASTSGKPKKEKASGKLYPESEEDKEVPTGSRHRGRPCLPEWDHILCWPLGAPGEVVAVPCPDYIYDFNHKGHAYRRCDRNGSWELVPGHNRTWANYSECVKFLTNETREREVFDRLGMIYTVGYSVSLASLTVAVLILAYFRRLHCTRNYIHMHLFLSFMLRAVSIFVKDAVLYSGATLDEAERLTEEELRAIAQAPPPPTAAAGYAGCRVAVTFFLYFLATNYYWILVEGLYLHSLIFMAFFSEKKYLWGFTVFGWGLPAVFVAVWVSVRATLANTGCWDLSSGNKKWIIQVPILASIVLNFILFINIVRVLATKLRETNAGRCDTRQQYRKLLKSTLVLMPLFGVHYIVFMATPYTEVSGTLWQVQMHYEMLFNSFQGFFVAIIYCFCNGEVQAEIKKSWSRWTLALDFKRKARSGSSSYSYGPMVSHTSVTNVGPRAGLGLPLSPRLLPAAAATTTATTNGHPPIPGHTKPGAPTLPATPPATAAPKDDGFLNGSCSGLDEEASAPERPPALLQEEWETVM
Procedure: as §1

PTH receptor [3] = target: T2, PTH receptor; format: biochemical, canine; conditions: for RENAL MEMBRANES Canine Activity (AC): Table 5B, hPTH(1-34) = 100
Procedure: as §1

PTH receptor [4] = target: T3, PTH receptor (Homo sapiens, UniProt Q03431); conditions: for BONE CELL MEMBRANES Human SaOS-2 Activity (AC): Table 5B, hPTH(1-34) = 100
T3 sequence (Q03431 27-593): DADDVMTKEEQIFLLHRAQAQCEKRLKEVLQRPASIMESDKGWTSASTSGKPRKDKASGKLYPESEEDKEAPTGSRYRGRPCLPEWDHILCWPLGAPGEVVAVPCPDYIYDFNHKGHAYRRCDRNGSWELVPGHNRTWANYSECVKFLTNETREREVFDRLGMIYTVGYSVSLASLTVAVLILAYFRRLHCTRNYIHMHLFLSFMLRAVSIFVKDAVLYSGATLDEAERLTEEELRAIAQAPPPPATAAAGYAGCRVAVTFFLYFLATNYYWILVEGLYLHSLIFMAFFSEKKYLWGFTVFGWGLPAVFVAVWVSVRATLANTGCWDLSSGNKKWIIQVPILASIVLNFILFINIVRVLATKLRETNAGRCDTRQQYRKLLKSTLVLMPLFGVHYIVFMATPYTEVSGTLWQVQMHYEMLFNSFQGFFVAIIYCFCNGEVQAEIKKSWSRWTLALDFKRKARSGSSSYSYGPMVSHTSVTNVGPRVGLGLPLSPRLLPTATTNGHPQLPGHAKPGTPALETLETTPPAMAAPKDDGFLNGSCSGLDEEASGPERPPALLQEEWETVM

PTH receptor [5] = target: T3, PTH receptor; format: cell-based; parameters: In intact rat (UMR-106) and human (SaOS-2) bone cell lines; endogenous in cells; host or cells: SaOS-2 human bone (osteosarcoma) cells; conditions: for BONE CELLS Human(SaOS-2) Activity (AC): Table 5A, intact cells, hPTH(1-34) = 100
Source text: The renal membrane assay values listed reflect the effect of the polypeptide analogue with kidney tissue receptors. The UMR-106-H5 assay values reflect the effect of the peptide analogue with rat bone tissue receptors. The Sa05-2 assay values reflect the effect of the peptides for human bone tissue receptors.

PTH receptor [6] = target: T1, PTH receptor; format: cell-based; conditions: for BONE CELLS Rat(UMR-106) Activity (AC): Table 5A, intact cells, hPTH(1-34) = 100
Procedure: as §1, with “Assays were conducted using […] cells. These assays were performed as described in Cohen et al. (1991), J. Biological Chem., 266(3), 1997 and in the Experimental section, e.g. Example 11. Receptor” for “Receptor”

PTH receptor [7] = test system: PTH receptor
PTH receptor [8] = target: T3, PTH receptor
[9] = cited from earlier work
[10] = aqueous conditions in the absence of amphiphiles (Ref. 37-39); cited from earlier work

BONE CELLS Rat(UMR-106) Potency (B) (PTH receptor [1]) | RENAL MEMBRANES Canine Potency (B) (PTH receptor [2]) | RENAL MEMBRANES Canine Potency (AC) (PTH receptor [3]) | RENAL MEMBRANES Canine Activity (AC) (PTH receptor [3]) | BONE CELL MEMBRANES Human SaOS-2 Potency (AC) (PTH receptor [4]) | BONE CELL MEMBRANES Human SaOS-2 Activity (AC) (PTH receptor [4]) | BONE CELLS Human(SaOS-2) Potency (AC) (PTH receptor [5]) | BONE CELLS Human(SaOS-2) Activity (AC) (PTH receptor [5]) | BONE CELLS Rat(UMR-106) Potency (AC) (PTH receptor [6]) | BONE CELLS Rat(UMR-106) Activity (AC) (PTH receptor [6]) | Compound | KIDNEY CELLS (CK) Potency (AC) (PTH receptor [7]) | KIDNEY CELLS (CK) Potency (B) (PTH receptors) | potency of native [ser^3]HPTH(1-34) retained in binding to PTH receptors (PTH receptors) | further results
1% | 4% | 1% | 43% | 11% | 14% | 5% | 100% | 4% | 100% | CC[C@H](C)[C@H](NC(=O)[C@H](CCC(=O)O)NC(=O)[C@H](Cc1c[nH]cn1)NC(=O)[C@@H](NC(=O)[C@@H](N)CO)C(C)C)C(=O)N[C@@H](CCC(N)=O)C(=O)N[C@@H](CC(C)C)C(=O)N[C@@H](CCSC)C(=O)N[C@@H](Cc1c[nH]cn1)C(=O)N[C@@H](CC(N)=O)C(=O)N[C@@H](CC(C)C)C(=O)NCC(=O)N[C@@H](CCCCN)C(=O)N[C@@H](Cc1c[nH]cn1)C(=O)N[C@@H](CC(C)C)C(=O)N[C@@H](CC(N)=O)C(=O)N[C@@H](CO)C(=O)N[C@@H](CCSC)C(=O)N[C@@H](CCC(=O)O)C(=O)N[C@@H](CCCNC(=N)N)C(=O)N[C@H](C(=O)N[C@@H](CCC(=O)O)C(=O)N[C@@H](Cc1c[nH]c2ccccc12)C(=O)N[C@@H](CC(C)C)C(=O)N[C@@H](CCCNC(=N)N)C(=O)N[C@@H](CCCCN)C(=O)N[C@@H](CCCCN)C(=O)N[C@@H](CC(C)C)C(=O)N[C@@H](CCC(N)=O)C(=O)N[C@@H](CC(=O)O)C(=O)N[C@H](C(=O)N[C@@H](Cc1c[nH]cn1)C(=O)N[C@@H](CC(N)=O)C(=O)N[C@@H](Cc1ccccc1)C(=O)O)C(C)C)C(C)C [[his^3]hPTH(1-34), [his^3]HPTH(1-34)] | 13% | 6% | 5-15% | –
6% | 7% | 1% | 47% | 8% | 14% | 11% | 86% | 13% | 100% | CC[C@H](C)[C@H](NC(=O)[C@H](CCC(=O)O)NC(=O)[C@H](CC(C)C)NC(=O)[C@@H](NC(=O)[C@@H](N)CO)C(C)C)C(=O)N[C@@H](CCC(N)=O)C(=O)N[C@@H](CC(C)C)C(=O)N[C@@H](CCSC)C(=O)N[C@@H](Cc1c[nH]cn1)C(=O)N[C@@H](CC(N)=O)C(=O)N[C@@H](CC(C)C)C(=O)NCC(=O)N[C@@H](CCCCN)C(=O)N[C@@H](Cc1c[nH]cn1)C(=O)N[C@@H](CC(C)C)C(=O)N[C@@H](CC(N)=O)C(=O)N[C@@H](CO)C(=O)N[C@@H](CCSC)C(=O)N[C@@H](CCC(=O)O)C(=O)N[C@@H](CCCNC(=N)N)C(=O)N[C@H](C(=O)N[C@@H](CCC(=O)O)C(=O)N[C@@H](Cc1c[nH]c2ccccc12)C(=O)N[C@@H](CC(C)C)C(=O)N[C@@H](CCCNC(=N)N)C(=O)N[C@@H](CCCCN)C(=O)N[C@@H](CCCCN)C(=O)N[C@@H](CC(C)C)C(=O)N[C@@H](CCC(N)=O)C(=O)N[C@@H](CC(=O)O)C(=O)N[C@H](C(=O)N[C@@H](Cc1c[nH]cn1)C(=O)N[C@@H](CC(N)=O)C(=O)N[C@@H](Cc1ccccc1)C(=O)O)C(C)C)C(C)C [[leu^3]hPTH(1-34), [leu^3] HPTH(1-34)] | 16% | 22% | 5-15% | RENAL MEMBRANES Human Potency (AC) (PTH receptor [8]): 3%; RENAL MEMBRANES Human Activity (AC) (PTH receptor [8]; Table 5B, hPTH(1-34) = 100): 35%
– | – | – | – | – | – | – | – | – | – | [Gln^22, Lys^28, Leu^30 hPTH(1-34) | – | – | – | loss of biological activity ([9]; Ref. 49, 50): 10-50 fold
– | – | – | – | – | – | – | – | – | – | [SOMet^18 ]bPTH(1-84) | – | – | – | activity of the native hormone retained ([9]; Ref. 49): ~50%
– | – | – | – | – | – | – | – | – | – | bPTH(7-34) (FMHNLGKHLSSMERVEWLRKKLQDVHNF; Parathyroid hormone; UniProt P01268 38-65, looked up, fragment) | – | – | – | alpha-helical residues, previous estimates [10]: 9 residues
